According to paper PMC4357467, “A Mouse Model of L-2-Hydroxyglutaric Aciduria, a Disorder of Metabolite Repair” (PLoS ONE, 2015):

Assays:
[1] = target: T1, Lysine-α-ketoglutarate reductase (bifunctional lysine-α-ketoglutarate reductase/saccharopine dehydrogenase) (Mus musculus, UniProt Q99K67); experiment: spectrophotometric enzyme assay (NADPH), partially purified native liver enzyme; type: biochemical; conditions: 25 mM Hepes pH 8.0, 30°C, 0.15 mM NADPH, 1 mM dithiothreitol, 10 mM lysine, 2 mM α-ketoglutarate
T1 construct: gene Aass; native bifunctional enzyme, partially purified from liver (15 000 x g supernatant, Blue Trisacryl column)
T1 sequence (Q99K67 28-926): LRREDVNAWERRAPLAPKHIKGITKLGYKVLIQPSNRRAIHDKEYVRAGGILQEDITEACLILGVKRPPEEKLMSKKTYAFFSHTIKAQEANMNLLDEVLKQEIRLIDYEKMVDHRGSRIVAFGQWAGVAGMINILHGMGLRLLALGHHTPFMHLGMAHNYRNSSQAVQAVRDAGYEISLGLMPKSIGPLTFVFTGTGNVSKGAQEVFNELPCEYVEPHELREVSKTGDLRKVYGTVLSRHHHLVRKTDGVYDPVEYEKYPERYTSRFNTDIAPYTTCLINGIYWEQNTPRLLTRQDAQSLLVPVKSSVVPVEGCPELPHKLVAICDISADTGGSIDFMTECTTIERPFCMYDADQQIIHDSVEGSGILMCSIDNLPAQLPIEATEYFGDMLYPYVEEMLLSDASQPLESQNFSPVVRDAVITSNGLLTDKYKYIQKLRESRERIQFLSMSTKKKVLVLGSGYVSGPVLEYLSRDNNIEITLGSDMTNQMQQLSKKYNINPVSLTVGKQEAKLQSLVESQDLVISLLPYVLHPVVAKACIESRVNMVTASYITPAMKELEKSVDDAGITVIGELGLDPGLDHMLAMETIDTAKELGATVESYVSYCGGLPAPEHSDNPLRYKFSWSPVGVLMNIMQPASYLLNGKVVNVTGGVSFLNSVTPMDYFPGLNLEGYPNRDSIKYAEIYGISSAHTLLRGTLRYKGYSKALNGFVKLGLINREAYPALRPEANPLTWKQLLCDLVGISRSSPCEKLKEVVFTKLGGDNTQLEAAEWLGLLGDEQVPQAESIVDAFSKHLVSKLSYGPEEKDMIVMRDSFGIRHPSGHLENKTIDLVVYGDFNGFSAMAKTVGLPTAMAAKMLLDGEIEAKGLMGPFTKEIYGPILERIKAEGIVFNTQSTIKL

[2] = target: T1, Lysine-α-ketoglutarate reductase (bifunctional lysine-α-ketoglutarate reductase/saccharopine dehydrogenase); experiment: as above; type: biochemical

Row | Ki [2] [µM] | Compound | spectrophotometric enzyme assay (NADPH), partially purified native liver enzyme [1]
1 | – | O=C(O)CC[C@@H](O)C(=O)O [D-2-hydroxyglutarate] | almost no inhibition was observed with D-2-hydroxyglutarate
2 | 700 | O=C(O)CC[C@H](O)C(=O)O [L-2-hydroxyglutarate] | –
